# Reference: patent US20070149552A1, “Lyophilized compositions of a triazolopyrimidine compound” (Wyeth, priority 2005, published 2007)
# Tests used:
# [1] = test system: xenograft models of human non-small cell lung cancer (NSCLC), colon cancer, breast cancer, melanoma, and glioblastoma; details: including models resistant to taxanes or other microtubule-active compounds; cited from earlier work
# Solubility of the salt = type: physicochemical
Structure (SMILES),antitumor activity [1],solubility (Solubility of the salt)
"CNCCCOc1cc(F)c(-c2c(Cl)nc3ncnn3c2N[C@@H](C)C(F)(F)F)c(F)c1 [Compound Ia, 5-chloro-6-{2,6-difluoro-4-[3-(methylamino)propoxy]phenyl}-N-[(1S)-2,2,2-trifluoro-1-methylethyl][1,2,4]triazolo[1,5-a]pyrimidin-7-amine]",broad antitumor activity,–
CNCCCOc1cc(F)c(-c2c(Cl)nc3ncnn3c2N[C@@H](C)C(F)(F)F)c(F)c1.O=C(O)CCC(=O)O [succinate dihydrate salt of Compound Ia],–,reasonable solubility
